According to US11242346B2, “Mechanistic target of rapamycin signaling pathway inhibitors and therapeutic applications thereof” (SUZHOU KINTOR PHARMACEUTICALS, INC., priority 2016, dated 2022):

Key:
mTOR (FRAP1) = mTOR (FRAP1) (Homo sapiens, UniProt P42345); test: SelectScreen Profiling, Z'-LYTE kinase assay, mTOR (FRAP1); format: biochemical; conditions: 0.1 μM compound, ATP at Km, read-out: mTOR inh% @0.1 μM
Description: (§1) Some of the example compounds were submitted to Life Technologies Corporation SelectScreen® Profiling Service to test their potency in inhibiting the kinase catalytic activities of mTOR, PI3Kα, VEGF2, FGFR1, HER1 (EGFR) and HER2. A concentration of ATP at the Km of the corresponding kinase was used for all assays. The mTOR (FRAP1), VEGF2, FGFR1, HER1 (EGFR) and HER2 assays used Z′-LYTE® technology. The PI3Kα assay used Adapta® technology. The symbol “inh %” as used herein generally refers to inhibition percentage.

NCI-H23 = test: NCI60 panel growth inhibition, NCI-H23; format: cell-based; conditions: Homo sapiens
Experimental: (§2) Cell growth inhibitory activities against cancer cells of the present compounds were also evaluated by submitting selected the example compounds to US NCI-Chemotherapeutic Agents Repository for screening against NCI60 panel. The United States NCI-60 platform is a cancer cell platform established with 60 different human cancer cell lines from 9 different kinds of organs. This platform represents the biological characteristics of the corresponding tumor type. The drugs were screened by measuring the ability of each test compound at a range of concentrations to inhibit the growth of various tumor cells.

[1] = Metabolic stability in human liver microsome (HLM); format: in vitro ADME; conditions: incubation with human liver microsome for 60 min
Experimental: (§3) Active mTOR inhibitors in enzymatic and/or cell-based assays herein were evaluated for pharmacokinetic properties. Preferable compounds are with pharmacokinetic properties of low clearance, long half-life and/or good oral bioavailability (Fpo). In vitro, selected example compounds were evaluated for metabolic stability by incubating with human liver microsome (HLM) for 60 min. Compounds that were metabolized slower (i.e. higher % remaining) are preferred. […] The more metabolic stable example compounds in the HLM assay were further evaluated for pharmacokinetic properties in vivo. In a representative experiment, selected example compounds were dosed to rats intravenously (IV, 5 mg/kg, 30% PEG400+30% PG+1% DMSO in saline) and orally (PO, 10 mg/kg, 2.4% DMSO+0.1% Tween80 in 0.5% CMC-Na), rat blood samples were taken at designed time points after dosing and analyzed for tested drug concentrations using LC-MS/MS. Pharmacokinetic parameters were derived from the time curve of drug concentrations.

NCI 60 human cell lines = test: NCI60 panel growth inhibition, average over 60 cell lines; format: cell-based
Experimental: as §2

PC-3 = test: NCI60 panel growth inhibition, PC-3; format: cell-based; conditions: Homo sapiens
Experimental: as §2

A549 = test: NCI60 panel growth inhibition, A549; format: cell-based; conditions: Homo sapiens
Experimental: as §2

HCT-116 = test: NCI60 panel growth inhibition, HCT-116; format: cell-based; conditions: Homo sapiens
Experimental: as §2

HER1 (EGFR) = HER1 (EGFR) (Homo sapiens, UniProt P00533); test: SelectScreen Profiling, Z'-LYTE kinase assay, HER1 (EGFR); format: biochemical; conditions: 1 μM compound, ATP at Km, read-out: HER1 inh % @1 μM
Description: as §1

VEGF2 = VEGF2 (Homo sapiens, UniProt P35968); test: SelectScreen Profiling, Z'-LYTE kinase assay, VEGF2; format: biochemical; conditions: 1 μM compound, ATP at Km, read-out: VEGF 2 inh % @1 μM
Description: as §1

PI3Kα = PI3Kα (Homo sapiens, UniProt P42336); test: SelectScreen Profiling, Adapta kinase assay, PI3Kα; format: biochemical; conditions: 0.1 μM compound, ATP at Km, read-out: PI3Kα inh % @0.1 μM
FGFR1 = FGFR1 (Homo sapiens, UniProt P11362); test: SelectScreen Profiling, Z'-LYTE kinase assay, FGFR1; format: biochemical; conditions: 1 μM compound, ATP at Km, read-out: FGFR 1 inh % @1 μM
Description: as §1

[2] = system: mammalian tumor cell lines such as PC-3, LNCAP, U87, Huh-7, HepG2 and MDA-MB-468; test: Cell proliferation/survival MTT assay in tumor cell lines; format: cell-based; conditions: 5 days (120 h) culture; cell line not specified; read-out: IC50, inhibition of tumor cell growth (MTT)
Experimental: The cytotoxic or cytostatic activity of Formula I-III exemplary compounds was measured by establishing proliferating mammalian tumor cell lines such as PC-3, LNCAP, U87, Huh-7, HepG2 and MDA-MB-468 in a cell culture medium, adding a test compound, culturing the cells for a period of 5 days by measuring cell viability via MTT assays. Dose response data were obtained for each test compound and the degree of inhibition of tumor cell growth was expressed as an IC50 value. […] For example. For example, compounds of example 14, 15, 46,29, 45, 49, 122, 88, 54, 55, 58, 59, 63, 64, 66, 67, 68, 113, 86, 90.
PC-3 (or U87) cells were seeded in 96-well plates at low density (at 2,000 cells per well) in media supplemented with 10% FBS (growth media) and transferred to serum-free media (1% FBS) after 24 h. Designated concentrations of drug were added to each well. The cells were incubated for 120 h. At the end of drug exposure, 20 μL/well of MTT solution was added. After 4 h at 37° C. in a humidified 5% CO2 atmosphere, the absorbance at 490 nm was recorded by using a microplate reader. IC50 was calculated using GraphPad Prism version 5 for Windows. The curves were fit using a nonlinear regression model with a log (inhibitor) versus response formula.

SKOV-3 = test: NCI60 panel growth inhibition, SKOV-3; format: cell-based; conditions: Homo sapiens, SK-OV-3
Experimental: as §2

MCF-7 = test: NCI60 panel growth inhibition, MCF-7; format: cell-based; conditions: Homo sapiens, MCF7
Experimental: as §2

HER2 = HER2 (Homo sapiens, UniProt P04626); test: SelectScreen Profiling, Z'-LYTE kinase assay, HER2; format: biochemical; conditions: 1 μM compound, ATP at Km, read-out: HER2 inh % @1 μM
Description: as §1

NCI-H460 = test: NCI60 panel growth inhibition, NCI-H460; format: cell-based; conditions: Homo sapiens
Experimental: as §2

[3] = Rat pharmacokinetic study (IV and PO); format: in vivo; conditions: for AUC(0-t) / Cmax / MRT / clearance / half-life / Tmax / bioavailability: blood; for bioavailability: PO 10 mg/kg vs IV 5 mg/kg, read-out: Fpo (oral bioavailability)
Experimental: as §3

[4] = Stability noted on isolation of the compound; format: physicochemical; conditions: after Prep-TLC purification
Experimental: To a mixture of compound 33 (80 mg, 0.28 mmol), compound 2 (22 mg, 0.09 mmol) and 2M Na2CO3 (1.2 mL) was added dioxane (6 mL). N2 was bubbled through the solution for 1.5 minutes, at which time Pd(dppf)Cl2 (12 mg, […]) was added. The reaction was stirred at 100° C. for 1 hour under N2. After cooling to room temperature, Ethyl acetate was added and the resulting slurry was sonicated and filtered. Additional ethyl acetate was used to wash the solid. The combined organic extracts were concentrated and the crude material was purified by Prep-TLC using Petroleum ether:Ethyl acetate (3:1) affording to Example 33 (10 mg),and the compound was unstable. ^1H NMR (400 MHz, CDCl3): δ 8.83 (s, 1H), 7.68-7.64 (m, 1H), 6.74-6.78 (m, 1H), 6.70-6.73 (m, 1H), 5.53 (bs, 2H), 4.11-4.04 (m, 4H), 3.87-3.82 (m, 4H). ESI-MS (M+H)^+: 366.1

PI3Kα, sequence (P42336 whole entry): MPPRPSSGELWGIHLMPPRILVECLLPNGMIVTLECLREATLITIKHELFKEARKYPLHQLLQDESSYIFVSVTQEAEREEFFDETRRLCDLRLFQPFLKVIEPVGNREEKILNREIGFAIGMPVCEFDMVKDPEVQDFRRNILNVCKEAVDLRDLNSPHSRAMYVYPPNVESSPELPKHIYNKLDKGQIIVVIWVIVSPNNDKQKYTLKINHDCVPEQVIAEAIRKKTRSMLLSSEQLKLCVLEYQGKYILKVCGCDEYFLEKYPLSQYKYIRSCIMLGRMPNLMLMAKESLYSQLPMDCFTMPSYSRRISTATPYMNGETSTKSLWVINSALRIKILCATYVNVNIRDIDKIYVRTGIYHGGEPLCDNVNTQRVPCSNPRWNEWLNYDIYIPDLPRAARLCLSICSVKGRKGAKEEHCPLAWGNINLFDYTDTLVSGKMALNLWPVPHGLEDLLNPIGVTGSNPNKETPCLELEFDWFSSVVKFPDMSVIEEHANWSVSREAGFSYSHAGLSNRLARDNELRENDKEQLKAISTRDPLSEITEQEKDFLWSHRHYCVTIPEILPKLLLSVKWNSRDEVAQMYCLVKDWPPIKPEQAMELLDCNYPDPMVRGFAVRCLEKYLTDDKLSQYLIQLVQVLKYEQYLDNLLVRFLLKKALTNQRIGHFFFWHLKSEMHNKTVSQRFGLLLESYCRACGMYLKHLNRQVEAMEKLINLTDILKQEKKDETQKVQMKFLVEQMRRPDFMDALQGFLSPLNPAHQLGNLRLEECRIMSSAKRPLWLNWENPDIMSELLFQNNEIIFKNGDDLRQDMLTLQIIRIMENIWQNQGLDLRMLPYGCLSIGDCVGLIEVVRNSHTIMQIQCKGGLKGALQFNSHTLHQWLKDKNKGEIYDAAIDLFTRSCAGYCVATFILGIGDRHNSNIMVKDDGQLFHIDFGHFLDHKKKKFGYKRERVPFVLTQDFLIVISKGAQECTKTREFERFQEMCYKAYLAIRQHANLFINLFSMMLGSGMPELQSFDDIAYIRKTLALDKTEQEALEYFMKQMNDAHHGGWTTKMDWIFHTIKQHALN
PI3Kα, sequence (P27986 whole entry partner): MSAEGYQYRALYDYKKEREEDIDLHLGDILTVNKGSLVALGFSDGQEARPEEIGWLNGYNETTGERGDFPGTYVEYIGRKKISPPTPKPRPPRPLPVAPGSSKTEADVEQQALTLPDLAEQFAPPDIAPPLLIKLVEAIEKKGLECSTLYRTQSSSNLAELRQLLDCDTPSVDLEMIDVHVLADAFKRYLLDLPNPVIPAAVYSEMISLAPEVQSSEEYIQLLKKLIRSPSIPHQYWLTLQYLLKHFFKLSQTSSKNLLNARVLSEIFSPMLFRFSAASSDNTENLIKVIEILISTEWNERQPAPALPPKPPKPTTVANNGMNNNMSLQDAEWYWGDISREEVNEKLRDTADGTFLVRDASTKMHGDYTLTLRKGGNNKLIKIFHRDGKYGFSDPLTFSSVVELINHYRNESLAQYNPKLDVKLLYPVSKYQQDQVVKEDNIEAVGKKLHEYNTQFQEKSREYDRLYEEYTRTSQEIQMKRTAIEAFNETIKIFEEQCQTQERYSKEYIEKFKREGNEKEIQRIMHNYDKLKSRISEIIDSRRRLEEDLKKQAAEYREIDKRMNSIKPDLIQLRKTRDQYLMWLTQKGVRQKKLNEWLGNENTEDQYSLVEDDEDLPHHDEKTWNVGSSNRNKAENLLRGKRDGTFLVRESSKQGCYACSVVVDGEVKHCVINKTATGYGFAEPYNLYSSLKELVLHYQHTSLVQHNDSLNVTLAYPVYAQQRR
VEGF2, sequence (P35968 20-1356): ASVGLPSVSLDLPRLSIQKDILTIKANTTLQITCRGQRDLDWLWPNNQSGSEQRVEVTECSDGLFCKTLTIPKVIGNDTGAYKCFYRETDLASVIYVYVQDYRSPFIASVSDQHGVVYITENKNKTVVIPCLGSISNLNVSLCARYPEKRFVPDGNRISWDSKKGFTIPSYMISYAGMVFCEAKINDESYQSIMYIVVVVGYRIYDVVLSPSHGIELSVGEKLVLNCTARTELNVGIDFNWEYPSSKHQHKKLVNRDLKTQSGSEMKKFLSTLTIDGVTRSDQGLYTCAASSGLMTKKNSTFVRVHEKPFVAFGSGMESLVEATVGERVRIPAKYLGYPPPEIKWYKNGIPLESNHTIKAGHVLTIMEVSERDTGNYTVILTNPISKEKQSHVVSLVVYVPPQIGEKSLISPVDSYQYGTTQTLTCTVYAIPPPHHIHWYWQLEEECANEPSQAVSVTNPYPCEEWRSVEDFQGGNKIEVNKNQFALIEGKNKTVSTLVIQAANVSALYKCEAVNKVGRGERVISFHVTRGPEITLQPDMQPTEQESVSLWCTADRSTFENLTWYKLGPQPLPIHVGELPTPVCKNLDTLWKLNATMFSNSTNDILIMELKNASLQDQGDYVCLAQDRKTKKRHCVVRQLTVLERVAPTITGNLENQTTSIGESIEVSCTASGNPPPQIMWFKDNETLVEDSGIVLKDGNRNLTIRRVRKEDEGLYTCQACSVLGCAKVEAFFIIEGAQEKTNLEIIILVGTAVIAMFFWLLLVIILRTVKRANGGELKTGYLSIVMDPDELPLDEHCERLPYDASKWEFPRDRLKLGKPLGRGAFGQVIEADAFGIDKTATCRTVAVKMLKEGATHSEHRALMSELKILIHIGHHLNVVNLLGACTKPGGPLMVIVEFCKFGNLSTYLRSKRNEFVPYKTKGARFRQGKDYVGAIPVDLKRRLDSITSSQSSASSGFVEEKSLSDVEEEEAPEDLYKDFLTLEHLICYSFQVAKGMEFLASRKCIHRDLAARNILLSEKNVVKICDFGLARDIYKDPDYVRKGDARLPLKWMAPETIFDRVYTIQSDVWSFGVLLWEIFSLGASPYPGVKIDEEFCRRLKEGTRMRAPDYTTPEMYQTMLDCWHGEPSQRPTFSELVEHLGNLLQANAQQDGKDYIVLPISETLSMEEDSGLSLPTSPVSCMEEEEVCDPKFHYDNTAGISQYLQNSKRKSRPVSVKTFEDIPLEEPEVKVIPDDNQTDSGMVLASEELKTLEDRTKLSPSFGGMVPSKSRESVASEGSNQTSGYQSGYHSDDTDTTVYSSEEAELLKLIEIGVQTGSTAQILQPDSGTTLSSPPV
HER2, sequence (P04626 23-1255): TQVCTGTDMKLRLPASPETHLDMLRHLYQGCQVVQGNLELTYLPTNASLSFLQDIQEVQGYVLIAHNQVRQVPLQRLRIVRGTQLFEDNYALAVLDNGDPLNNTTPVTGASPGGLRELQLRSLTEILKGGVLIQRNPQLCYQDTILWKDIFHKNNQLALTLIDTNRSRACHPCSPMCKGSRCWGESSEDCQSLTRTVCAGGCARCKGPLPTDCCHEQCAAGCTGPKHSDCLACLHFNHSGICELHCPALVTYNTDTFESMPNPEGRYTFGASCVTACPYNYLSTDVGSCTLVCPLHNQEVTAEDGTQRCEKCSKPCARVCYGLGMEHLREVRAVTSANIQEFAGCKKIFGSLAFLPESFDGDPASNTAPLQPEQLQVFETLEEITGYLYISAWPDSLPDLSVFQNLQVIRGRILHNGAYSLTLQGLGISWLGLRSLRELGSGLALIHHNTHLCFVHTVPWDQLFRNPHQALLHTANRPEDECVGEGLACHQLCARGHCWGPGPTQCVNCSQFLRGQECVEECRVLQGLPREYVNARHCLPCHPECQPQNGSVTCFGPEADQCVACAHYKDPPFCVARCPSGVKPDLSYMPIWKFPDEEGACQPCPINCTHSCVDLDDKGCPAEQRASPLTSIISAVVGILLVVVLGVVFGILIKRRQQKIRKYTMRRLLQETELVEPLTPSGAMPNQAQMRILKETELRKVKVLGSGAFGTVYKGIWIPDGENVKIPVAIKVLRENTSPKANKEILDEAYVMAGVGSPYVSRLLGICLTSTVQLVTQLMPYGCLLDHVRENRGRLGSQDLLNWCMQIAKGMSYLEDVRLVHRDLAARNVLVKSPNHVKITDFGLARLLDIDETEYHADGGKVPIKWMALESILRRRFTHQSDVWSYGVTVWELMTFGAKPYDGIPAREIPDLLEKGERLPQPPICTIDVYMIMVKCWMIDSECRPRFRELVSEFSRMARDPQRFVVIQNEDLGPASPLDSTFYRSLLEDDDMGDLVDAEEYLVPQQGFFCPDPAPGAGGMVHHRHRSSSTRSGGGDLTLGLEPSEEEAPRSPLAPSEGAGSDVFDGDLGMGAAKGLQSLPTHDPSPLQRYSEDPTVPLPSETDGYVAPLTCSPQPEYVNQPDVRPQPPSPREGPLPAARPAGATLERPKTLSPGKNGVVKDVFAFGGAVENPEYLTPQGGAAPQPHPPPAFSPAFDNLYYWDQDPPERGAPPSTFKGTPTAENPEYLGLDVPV

Row | inhibition at 0.1 µM (mTOR (FRAP1)) [%] | metabolic stability in HLM [1] | inhibition at 1 µM (HER1 (EGFR)) [%] | inhibition at 1 µM (VEGF2) [%] | inhibition at 0.1 µM (PI3Kα) [%] | inhibition at 1 µM (FGFR1) [%] | inhibition at 1 µM (HER2) [%] | AUC(0-t) ([3]; IV 5 mg/kg) [ng·h/mL] | Cmax ([3]; IV 5 mg/kg) [ng/mL] | MRT ([3]; IV 5 mg/kg) [h] | clearance ([3]; IV 5 mg/kg) [mL/min/kg] | half-life ([3]; IV 5 mg/kg) [h] | SMILES | GI50 (NCI-H23) [nM] | GI50 (NCI 60 human cell lines) [nM] | GI50 (PC-3) [nM] | GI50 (A549) [nM] | GI50 (HCT-116) [nM] | IC50 [2] [nM] | GI50 (SKOV-3) [nM] | GI50 (MCF-7) [nM] | other results
1 | 86 | metabolically stable | 0 | 11 | – | -3 | -6 | 8760 | 8460 | 3.66 | 8.28 | 3.25 | CN1CCN(C(=O)c2ccc(NC(=O)Nc3ccc(-c4nc(N5CCOCC5)c5cccn5n4)cc3)cc2)CC1 [Example 46] | 96.2 | 59 | 23 | 66.5 | 60.2 | < 500 | 26.8 | 14.4 | GI50 (NCI-H460): 59.7 nM
2 | 94 | metabolically stable | -1 | 11 | 9 | -1 | -7 | 16600 | 11900 | 1.84 | 4.83 | 1.49 | O=C(NCCO)Nc1ccc(-c2nc(N3CCOCC3)c3cccn3n2)cc1 [Example 29] | – | – | – | – | – | < 500 | – | – | CL ([3]; PO 10 mg/kg): 99 mL/min/kg; AUC(0-t) ([3]; PO 10 mg/kg): 1650 ng·h/mL; Cmax ([3]; PO 10 mg/kg): 380 ng/mL; MRT ([3]; PO 10 mg/kg): 2.9 h; Tmax ([3]; PO 10 mg/kg): 2 h; half-life ([3]; PO 10 mg/kg): 1.12 h; bioavailability [3]: 5%
3 | 87 | metabolically stable | -1 | 8 | 11 | 1 | -8 | 10100 | 6560 | 1.7 | 10.3 | 1.3 | O=C(Nc1ccc(-c2nc(N3CCOCC3)c3cccn3n2)cc1)Nc1cccnc1 [Example 14] | 269 | 120 | 51 | 244 | 41 | < 500 | 98.7 | 48.3 | GI50 (NCI-H460): 142 nM; CL ([3]; PO 10 mg/kg): 30.13 mL/min/kg; AUC(0-t) ([3]; PO 10 mg/kg): 4900 ng·h/mL; Cmax ([3]; PO 10 mg/kg): 784 ng/mL; MRT ([3]; PO 10 mg/kg): 5.71 h; Tmax ([3]; PO 10 mg/kg): 1 h; half-life ([3]; PO 10 mg/kg): 3.28 h; bioavailability [3]: 22%

Continued, compound first:

Row | SMILES | inhibition at 0.1 µM (mTOR (FRAP1)) [%] | metabolic stability in HLM [1] | inhibition at 1 µM (HER1 (EGFR)) [%] | inhibition at 1 µM (VEGF2) [%] | inhibition at 0.1 µM (PI3Kα) [%] | inhibition at 1 µM (FGFR1) [%] | inhibition at 1 µM (HER2) [%] | AUC(0-t) ([3]; IV 5 mg/kg) [ng·h/mL] | Cmax ([3]; IV 5 mg/kg) [ng/mL] | MRT ([3]; IV 5 mg/kg) [h] | clearance ([3]; IV 5 mg/kg) [mL/min/kg] | half-life ([3]; IV 5 mg/kg) [h] | GI50 (NCI-H23) [nM] | GI50 (NCI 60 human cell lines) [nM] | GI50 (PC-3) [nM] | GI50 (A549) [nM] | GI50 (HCT-116) [nM] | IC50 [2] [nM] | GI50 (SKOV-3) [nM] | GI50 (MCF-7) [nM] | other results
4 | CN(C)C1CCN(C(=O)c2ccc(NC(=O)Nc3ccc(-c4nc(N5CCOCC5)c5cccn5n4)cc3)cc2)CC1 [Example 15] | 98 | metabolically stable | -2 | 8 | 54 | 4 | -7 | 3430 | 4710 | 5.57 | 17.8 | 4.98 | 123 | 76 | 25 | 54.5 | 65.7 | < 500 | 46.3 | < 10 | GI50 (NCI-H460): 67 nM
5 | OCCNC(=S)Nc1ccc(-c2nc(N3C[C@H]4CC[C@@H](C3)O4)c3cccn3n2)cc1 [Example 122] | 94 | metabolically stable | 1 | -10 | 8 | 0 | -1 | 11400 | 4700 | 3.03 | 7.35 | 2.13 | 70.3 | 62 | 41 | 110 | 364 | < 500 | 18.9 | 26.8 | GI50 (NCI-H460): 35.9 nM; CL ([3]; PO 10 mg/kg): 13.3 mL/min/kg; AUC(0-t) ([3]; PO 10 mg/kg): 11900 ng·h/mL; Cmax ([3]; PO 10 mg/kg): 1910 ng/mL; MRT ([3]; PO 10 mg/kg): 7.33 h; Tmax ([3]; PO 10 mg/kg): 0.833 h; half-life ([3]; PO 10 mg/kg): 4.72 h; bioavailability [3]: 48%
6 | Nc1ncc(-c2nc(N3CCOCC3)c3cccn3n2)c(C(F)(F)F)n1 [Example 33] | – | – | – | – | – | – | – | – | – | – | – | – | – | – | – | – | – | – | – | – | stability of the isolated compound [4]: unstable
